Data set [1] addresses T1, hPPARγ (Homo sapiens, UniProt P37231).
T1 construct: expressed in transfected cells
T1 sequence (P37231 1-505): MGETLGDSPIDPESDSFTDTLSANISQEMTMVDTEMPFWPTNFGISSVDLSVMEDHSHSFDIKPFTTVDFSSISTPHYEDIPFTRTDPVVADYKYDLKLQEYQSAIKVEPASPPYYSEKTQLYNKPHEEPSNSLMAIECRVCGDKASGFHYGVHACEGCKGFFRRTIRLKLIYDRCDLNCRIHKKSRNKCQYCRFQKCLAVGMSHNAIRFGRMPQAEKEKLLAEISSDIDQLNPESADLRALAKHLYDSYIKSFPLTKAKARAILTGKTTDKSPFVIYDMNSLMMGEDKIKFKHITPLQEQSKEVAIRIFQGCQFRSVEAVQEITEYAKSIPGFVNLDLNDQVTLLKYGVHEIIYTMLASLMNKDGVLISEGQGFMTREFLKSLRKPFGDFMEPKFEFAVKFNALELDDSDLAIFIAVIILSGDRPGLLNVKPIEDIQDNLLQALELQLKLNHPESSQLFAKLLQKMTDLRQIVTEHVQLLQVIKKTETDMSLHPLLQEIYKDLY
Nature of the data set: PPARγ luciferase reporter cell-line assay (Indigo Biosciences). It counts as cell-based. Here is the method:
(§1) Luciferase assays were conducted on isogenic cell-lines engineered to overexpress either PPARδ or PPARγ with expression of the requisite luciferase reporter gene dependent upon exogenous activation of each isoform.

The target in data set [2] is T2, hPPARα (Homo sapiens, UniProt Q07869).
T2 sequence (Q07869 1-468): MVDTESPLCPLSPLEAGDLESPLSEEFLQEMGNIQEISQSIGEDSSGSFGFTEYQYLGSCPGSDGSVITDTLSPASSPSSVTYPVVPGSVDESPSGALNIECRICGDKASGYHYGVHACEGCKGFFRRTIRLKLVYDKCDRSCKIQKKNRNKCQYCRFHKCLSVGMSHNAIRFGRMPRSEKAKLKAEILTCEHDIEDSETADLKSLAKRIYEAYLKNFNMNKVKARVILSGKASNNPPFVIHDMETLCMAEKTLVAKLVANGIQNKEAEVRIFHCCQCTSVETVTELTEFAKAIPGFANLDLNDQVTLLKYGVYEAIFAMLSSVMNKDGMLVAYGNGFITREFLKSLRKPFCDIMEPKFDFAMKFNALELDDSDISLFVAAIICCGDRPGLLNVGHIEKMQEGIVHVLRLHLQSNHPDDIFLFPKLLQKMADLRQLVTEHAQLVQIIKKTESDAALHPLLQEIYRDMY
Kind of data set: PPARα luciferase cell reporter assay (Indigo Biosciences). It is filed as cell-based. To be noted: for ratio of agonism compared to GW590735 (value in parentheses): hPPARα luciferase reporter cell-line; for PPAR isoform selectivity profile: hPPARα vs hPPARδ and hPPARγ luciferase cell-lines; for dose-dependent PPARα agonism in cell-based luciferase reporter assay: FIGS. 4 and 7. From the text: With the focused subset of analogs in-hand, our efforts shifted to the evaluation of these derivatives for PPARα agonism. Preliminary evaluation utilized a commercially available PPARα luciferase cell reporter assay (Indigo Biosciences). The cell-line employed is engineered to constitutively express high-levels of hPPARα. Upon interaction with an agonist, hPPARα translocates to the nucleus, binds to the PPRE, and upregulates gene transcription, including the inserted luciferase gene. Luciferase activity is detected indirectly through quantification of oxyluciferin production.

For data set [3], the target named is T3, hPPARδ (Homo sapiens, UniProt Q03181).
T3 construct: expressed in transfected cells
T3 sequence (Q03181 1-441): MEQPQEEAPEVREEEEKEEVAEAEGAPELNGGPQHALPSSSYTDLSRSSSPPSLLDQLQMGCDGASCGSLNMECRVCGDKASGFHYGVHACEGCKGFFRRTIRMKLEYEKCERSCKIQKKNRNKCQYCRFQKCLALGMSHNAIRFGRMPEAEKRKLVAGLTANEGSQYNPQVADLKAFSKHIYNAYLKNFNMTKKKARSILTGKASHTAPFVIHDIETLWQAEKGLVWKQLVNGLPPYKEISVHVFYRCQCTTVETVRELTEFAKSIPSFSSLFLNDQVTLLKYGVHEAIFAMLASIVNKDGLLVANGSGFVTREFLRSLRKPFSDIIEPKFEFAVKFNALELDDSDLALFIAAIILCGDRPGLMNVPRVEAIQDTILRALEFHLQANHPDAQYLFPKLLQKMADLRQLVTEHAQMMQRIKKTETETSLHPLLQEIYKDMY
Nature of the data set: PPARδ luciferase reporter cell-line assay (Indigo Biosciences). It counts as cell-based. Here is the method:
as §1
For orientation: A reporter such as luciferase makes a cellular process visible.

A short description of data set [4]: Solubilities of various compounds. It counts as physicochemical.
[5] abbreviates: Table 6, cellular luciferase activity, read-out: γ EC50.
Setting [6] is: luciferase reporter cell-line, triplicate, single experiment, read-out: hPPARγ EC50.
The mark [7] stands for this setting: structure IIa compounds (Table 6).
Setting [8] is: Table 6, cellular luciferase activity, read-out: α EC50.
[9] abbreviates: luciferase reporter cell-line, triplicate, single experiment, read-out: hPPARα EC50.
Where [10] appears, read: Table 6, cellular luciferase activity, read-out: δ EC50.
[11] abbreviates: luciferase reporter cell-line, triplicate, single experiment, read-out: hPPARδ EC50.
Setting [12] is: structure IIb compounds (Table 8).
The mark [13] stands for this setting: PBS, pH 7.4, aqueous buffer, read-out: PBS Solubility pH 7.4.
Where [14] appears, read: water, H2O, read-out: H2O Solubility.

Molecules are shown by their SMILES. ≈ marks a conversion by molar mass, not a printed value. Read-outs that look alike come from different tables or passages of the source. Where only a bound is given, the exact number is not on record here.

As usually defined, the EC50 is the concentration needed to bring the measured effect to its halfway point. The solubility is how much of the substance goes into solution per volume.

For the compound `COc1ccc(COc2ccc(CNc3cccc(C(=O)O)c3)c(OCc3ccc(OC)cc3)c2)cc1` [Compound 92], the EC50 in data set [1] (setting [5]) was above 100 µM; in data set [1] (setting [6]), above 100 µM; in data set [2] (setting [8]), 5.1 µM; in data set [2] (setting [9]) it was 5.1 µM; in data set [3] (setting [10]) it was above 100 µM; in data set [3] (setting [11]), above 100 µM. For the same compound, the “Fold (5 μM): fold increase in luciferase compared to DMSO negative control” value (“Fold (5 μM): fold increase in luciferase” below) in data set [2] (setting [7]) is on record as 8 fold. Also, the “Fold (50 μM): fold increase in luciferase compared to DMSO negative control” value (“Fold (50 μM): fold increase” for short) in data set [2] (setting [7]) is given as 21 fold. Also, the “ratio of agonism compared to GW590735 (value in parentheses)” value in data set [2] came out at 1.1. Also, in data set [2], the “PPAR isoform selectivity profile” value is recorded as “maintains the selectivity”.
As for `COc1ccc(COc2ccc(CNc3cccc(OC(C)(C)C(=O)O)c3)cc2)cc1` [Compound 114], the EC50 in data set [1] (setting [5]) came to 38.6 µM; in data set [1] (setting [6]), 18.3 µM; in data set [3] (setting [10]), 18.3 µM; in data set [3] (setting [11]), 38.6 µM.
`COc1ccc(COc2ccc(CNc3cccc(OC(C)(C)C(=O)O)c3)c(OCc3ccc(OC)cc3)c2)cc1` [Compound 115]: the 50% effective concentration (EC50) is 8.9 µM in data set [1] (setting [5]); 5.6 µM in data set [1] (setting [6]); 2.1 µM in data set [2] (setting [8]); 2.1 µM in data set [2] (setting [9]); 5.6 µM in data set [3] (setting [10]); 8.9 µM in data set [3] (setting [11]). Further, in data set [2] (setting [7]), the “Fold (5 μM): fold increase in luciferase” value was 1 fold. Further, the “Fold (50 μM): fold increase” value in data set [2] (setting [7]) was determined as 41 fold. The “improvement in potency on adding third B-ring substituent” value in data set [2] (28 compared with 22) amounted to 10 fold. In data set [2], the “ratio of agonism compared to GW590735 (value in parentheses)” value was found to be 1.4. Further, the “PPAR isoform selectivity profile” value in data set [2] was “pan-agonist profile was maintained”.
`O=C(O)c1cc(Cl)cc(NCc2ccc(OCc3ccc(F)cc3)cc2)c1` [Compound 168]: in data set [2] (setting [7]), the “Fold (5 μM): fold increase in luciferase” value is 18 fold and the “Fold (50 μM): fold increase” value was 93 fold.
For the compound `CC(C)(Oc1ccc(NCc2ccc(OCc3ccc(F)cc3)cc2)cc1)C(=O)O` [Compound 182], in data set [2] (setting [12]), the “Fold (5 μM): fold increase in luciferase” value was found to be 40 fold and the “Fold (50 μM): fold increase” value is 74 fold.
Regarding `O=C(O)c1ccc(NCc2ccc(OCc3ccc(F)cc3)cc2)cc1` [Compound 183], in data set [2] (setting [12]), the “Fold (5 μM): fold increase in luciferase” value is 4 fold and the “Fold (50 μM): fold increase” value is 14 fold.
Regarding `O=C(O)c1cc(Br)cc(NCc2ccc(OCc3ccc(F)cc3)cc2)c1` [Compound 184], in data set [2] (setting [7]), the “Fold (5 μM): fold increase in luciferase” value came out at 59 fold and the “Fold (50 μM): fold increase” value came to 69 fold. In addition, in data set [2] (setting [8]), the EC50 was found to be 0.9 µM.
The corresponding values for `O=C(O)c1cc(F)cc(NCc2ccc(OCc3ccc(F)cc3)cc2)c1` [Compound 185] are 61 fold, 66 fold and 0.7 µM.
As for `COc1ccc(CCOc2ccc(CCNc3cccc(C(=O)O)c3)cc2)cc1` [Compound 187], in data set [2] (setting [7]), the “Fold (5 μM): fold increase in luciferase” value was 1 fold and the “Fold (50 μM): fold increase” value was 0 fold.
As to `CC(C)(Sc1cccc(NCc2ccc(OCc3ccc(F)cc3)cc2)c1)C(=O)O` [Compound 188], in data set [2] (setting [7]), the “Fold (5 μM): fold increase in luciferase” value came to 10 fold and the “Fold (50 μM): fold increase” value is on record as 45 fold.
As for `O=C(O)c1cccc(NCc2ccc(OCc3ccc(I)cc3)cc2)c1` [Compound 189], in data set [2] (setting [7]), the “Fold (5 μM): fold increase in luciferase” value was 39 fold and the “Fold (50 μM): fold increase” value was 37 fold. The EC50 in data set [2] (setting [8]) stood at 1.2 µM.
For `Cc1cc(CNc2cccc(C(=O)O)c2)ccc1OCc1ccc(F)cc1` [Compound 190], the EC50 is above 100 µM in data set [1] (setting [5]); 0.03 µM in data set [2] (setting [8]); 0.037 µM in data set [2] (text b235, read-out: EC50 (PPARα)); above 100 µM in data set [3] (setting [10]). Besides, the “dose-dependent PPARα agonism in cell-based luciferase reporter assay” value in data set [2] is on record as “exhibits dose-dependent activity”; in data set [2] (listed as A190) it was “dose-dependent agonism of PPARα”.
As for `N#Cc1ccc(COc2ccc(CNc3cccc(C(=O)O)c3)cc2)cc1` [Compound 191], in data set [2] (setting [7]), the “Fold (5 μM): fold increase in luciferase” value was found to be 42 fold and the “Fold (50 μM): fold increase” value was found to be 61 fold.
Turning to `O=C(O)c1cccc(NCc2ccc(OCc3ccc(Br)cc3)cc2)c1` [Compound 192], in data set [2] (setting [7]), the “Fold (5 μM): fold increase in luciferase” value is 53 fold and the “Fold (50 μM): fold increase” value amounted to 58 fold. Moreover, the EC50 in data set [2] (setting [8]) came out at 0.8 µM.
Consider `O=C(O)c1cccc(NCc2ccc(OCc3cccc(F)c3)cc2)c1` [Compound 193], for which, in data set [2] (setting [7]), the “Fold (5 μM): fold increase in luciferase” value is 73 fold and the “Fold (50 μM): fold increase” value was determined as 56 fold. Moreover, the EC50 in data set [2] (setting [8]) came out at 1.1 µM.
In turn, `O=C(O)c1cccc(NCc2ccc(OCc3ccc(F)cc3F)cc2)c1` [Compound 194] returned a concentration giving a half-maximal response (EC50) in data set [2] of 0.4 µM. Moreover, in data set [2] (setting [7]), the “Fold (5 μM): fold increase in luciferase” value is given as 51 fold and the “Fold (50 μM): fold increase” value is recorded as 49 fold.
Consider `O=C(O)c1cccc(NCc2ccc(OCc3ccccc3F)cc2)c1` [Compound 195], for which, in data set [2] (setting [7]), the “Fold (5 μM): fold increase in luciferase” value worked out at 34 fold and the “Fold (50 μM): fold increase” value is listed as 45 fold.
For the compound `Cc1cc(CNc2cccc(C(=O)O)c2)ccc1OCc1cc(F)cc(F)c1` [Compound 198], in data set [2] (setting [7]), the “Fold (5 μM): fold increase in luciferase” value was 88 fold and the “Fold (50 μM): fold increase” value was found to be 84 fold.
Regarding `Cc1cc(CN(C)c2cccc(C(=O)O)c2)ccc1OCc1ccc(F)cc1` [Compound 199], in data set [2] (setting [7]), the “Fold (5 μM): fold increase in luciferase” value came to 102 fold and the “Fold (50 μM): fold increase” value was 131 fold.
`CC(C)(Oc1ccc(C(=O)c2ccc(Cl)cc2)cc1)C(=O)O` [Fenofibric acid, fenofibric acid, reference compound]: the solubility was found to be 278 µM (≈ 88.6 µg/mL) in data set [4] (setting [13]) and 93 µM (≈ 29.6 µg/mL) in data set [4] (setting [14]).
`Cc1cc(CNc2cccc(C(=O)OCOP(=O)([O-])O)c2)ccc1OCc1ccc(F)cc1.[Na+]` [ZH-2021-162]: the figures for the solubility in data set [4] (setting [13]) and in data set [4] (setting [14]) were 292 µM and 318 µM, respectively.
Consider `Cc1cc(CNc2cccc(C(=O)OCOP(=O)(O)O)c2)ccc1OCc1ccc(F)cc1` [ZH-2021-164], for which the solubility in data set [4] (setting [13]) is 316 µM (≈ 150 µg/mL); in data set [4] (setting [14]), 284 µM (≈ 135 µg/mL).

The values above are taken from patent US12319708B2, “Agonists of peroxisome proliferator-activated receptor alpha (PPARα) and methods of use” (The Board of Regents of the University of Oklahoma, priority 2018, dated 2025).
